Values joined by “and” are separate entries in the source; they are usually repeats but may differ in a detail not shown here. Equal values may be shown once.
Experiments:
[1] = tested on: BE2-c subcutaneous tumors; assay: Anti-tumor activity in BE2-c tumor bearing NSG mice; assay type: in vivo; conditions: follow up study, dosing three times per week
Method: A follow up study of the combination integrated control groups and modified dosing of MP1 plus TEM to three times per week at the doses described above. […] Tumor measurements were performed daily and treatments began on the first day the tumor achieved 2 mm^3 in size.

[2] = tested on: MYCN, MCL-1, PARP, LC3I, LC3II, BRD-4, bcl-2 and BAX gene expression in BE-2c cells; assay: RNAseq gene expression analysis; assay type: cell-based; set-up: RNAseq expression value, MYCN gene / RNAseq expression value, MCL-1 gene / RNAseq expression value, LCII gene / RNAseq expression value, LCI gene / RNAseq expression value, BRD-4 gene / RNAseq expression value, Bcl-2 gene / RNAseq expression value, BAX gene: unit not given here; conditions: 18 h, TEM alone 1 μM
Method: Total RNA was extracted using the RNeasy Micro Kit (Qiagen, Germantown, MD). Nano Drop was used to measure RNA concentration and purity and integrity was evaluated using Agilent Bioanalyzer System (Agilent Technologies, Santa Clara, CA). RNA sequencing and library preparation was performed using Maestro TruSeq Application (Perkin Elmer, Waltham, MA). Parameters used were optimized for 50 bp single-end reads with 20 million reads per sample. […] Gene expression analysis are reported for those pathways where protein analysis was performed (MYCN, MCL-1, PARP, LC3I, LC3II, BRD-4, bcl-2, and BAX).

[3] = compared to untreated controls
Method: NSG mice were injected subcutaneously with 5 × 10^5 BE2-c cells in a 50:50 PBS/Matrigel® solution. […] Bone marrow was collected at necropsy for a CFU-GM assay to assess bone marrow toxicity.

[4] = tested on: OXPHOS (OCR) and glycolysis (ECAR) in BE-2c cells; assay: Metabolic flux analysis and cell energy phenotype (XFp Seahorse); assay type: cell-based; conditions: 18 h, metformin 5 mM
Method: Six wells of an XFp culture plate were seeded with 15,000 BE-2c cells/well in 80 μL DMEM with 10% FBS. […] The XFp Cell Energy Phenotype assay utilizes oligomycin as an inhibitor of ATP synthase and FCCP which is a mitochondrial uncoupling reagent. Oligomycin inhibits mitochondrial ATP production leading to a compensatory increase in glycolysis to meet energy demands. FCCP depolarizes the mitochondrial membrane driving the oxygen consumption rates higher as mitochondria restore polarization. The results were graphed on a grid indicating degree of aerobic/glycolytic metabolism and energetic/quiescent phenotypes.

| SMILES | Complete responses [1] | Change (fold change treatment over control), BAX gene [2] | Change (fold change treatment over control), BRD-4 gene [2] | Change (fold change treatment over control), Bcl-2 gene [2] | Change (fold change treatment over control), MCL-1 gene [2] | Change (fold change treatment over control), MYCN gene [2] | Change (fold change treatment over control), PARP1 gene [2] | RNAseq expression value, BAX gene ([2]; replicates #1-#3) | RNAseq expression value, BRD-4 gene ([2]; replicates #1-#3) | RNAseq expression value, Bcl-2 gene ([2]; replicates #1-#3) | RNAseq expression value, LCI gene ([2]; replicates #1-#3) | RNAseq expression value, LCII gene ([2]; replicates #1-#3) | RNAseq expression value, MCL-1 gene ([2]; replicates #1-#3) | RNAseq expression value, MYCN gene ([2]; replicates #1-#3) | RNAseq expression value, PARP1 gene ([2]; replicates #1-#3) | Bone marrow toxicity (CFU-GM assay) [3] | Effect on OXPHOS and glycolysis [4] |
| --- | --- | --- | --- | --- | --- | --- | --- | --- | --- | --- | --- | --- | --- | --- | --- | --- | --- |
| CO[C@H]1C[C@@H]2CC[C@@H](C)[C@@](O)(O2)C(=O)C(=O)N2CCCC[C@H]2C(=O)O[C@H]([C@H](C)C[C@@H]2CC[C@@H](OC(=O)C(C)(CO)CO)[C@H](OC)C2)CC(=O)[C@H](C)/C=C(\C)[C@@H](O)[C@@H](OC)C(=O)[C@H](C)C[C@H](C)/C=C/C=C/C=C/1C [TEM, temsirolimus] | no complete responses | −1.14 | −1.06 | 1.45 | −1.12 | 1.0 | −1.2 | 42.7 and 37.3 and 40.6 | 70.4 and 71.4 and 72.7 | 49.2 and 52.0 and 47.7 | 5.1 and 4.4 (2×) | 92.7 and 92.5 and 89.7 | 281 and 282 and 276 | 2264 and 2140 and 2232 | 580 and 617 and 599 | unaffected |  |
| CN(C)C(=N)N=C(N)N [metformin] |  |  |  |  |  |  |  |  |  |  |  |  |  |  |  |  | uncoupled OXPHOS metabolism without effects on glycolysis |
